This is an account of results in PubChem BioAssay AID328 (DTP/NCI, 2004).

Where “and” joins values, the source holds several entries; their conditions need not be identical. Equal entries are not always repeated. Toxic doses and inconclusive results are not listed.

The test concerns BDF1 mice, P388 leukemia ip, median survival T/C. Nature of the test: NCI In Vivo Anticancer Drug Screen. Data for tumor model P388 Leukemia (intraperitoneal) in B6D2F1 (BDF1) mice. As to conditions: endpoint: median survival time, higher = longer survival. The procedure, abridged:
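T/C = treated-group survival ÷ vehicle-control survival; tumour transplanted into mice before dosing.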

[1] abbreviates: dose: 6.25 mg/kg/injection, schedule: Q01DX009 (ip), vehicle: water.
Setting [2] is: dose: 12.5 mg/kg/injection, schedule: Q01DX009 (ip), vehicle: water.
The mark [3] stands for this setting: dose: 100.0 mg/kg/injection, schedule: Q04DX003 (ip), vehicle: saline.
The mark [4] stands for this setting: dose: 100.0 mg/kg/injection, schedule: Q01DX001 (ip), vehicle: saline.
Setting [5] is: dose: 200.0 mg/kg/injection, schedule: Q01DX001 (ip), vehicle: saline.
The mark [6] stands for this setting: dose: 100.0 mg/kg/injection, schedule: Q04DX003 (ip), vehicle: saline with Tween-80.
Setting [7] is: dose: 100.0 mg/kg/injection, schedule: Q01DX001 (ip), vehicle: Klucel (hydroxypropylcellulose) (HPC).

Turning to `CCN(CC)Cc1c(C)[nH]c2ccc(N(C)C)cc2c1=O`, the T/C was 86 % of control and 110 % of control (dose: 1.56 mg/kg/injection, schedule: Q01DX009 (ip), vehicle: water); 89 % of control and 100 % of control (dose: 3.12 mg/kg/injection, schedule: Q01DX009 (ip), vehicle: water); 89 % of control under setting [1]; 99 % of control (dose: 12.5 mg/kg/injection, schedule: Q01DX009 (ip), vehicle: Klucel (hydroxypropylcellulose) (HPC)); 120 % of control under setting [2]; 108 % of control (dose: 25.0 mg/kg/injection, schedule: Q01DX009 (ip), vehicle: Klucel (hydroxypropylcellulose) (HPC)). Besides, the T/C is 111 % of control (dose: 25.0 mg/kg/injection, schedule: Q04DX003 (ip), vehicle: saline); 99 % of control (dose: 50.0 mg/kg/injection, schedule: Q01DX009 (ip), vehicle: Klucel (hydroxypropylcellulose) (HPC)); 112 % of control (dose: 50.0 mg/kg/injection, schedule: Q04DX003 (ip), vehicle: saline); 104 % of control under setting [3]; 106 % of control (dose: 200.0 mg/kg/injection, schedule: Q01DX009 (ip), vehicle: Klucel (hydroxypropylcellulose) (HPC)).
In the case of `COC(=O)C12OCC34C(CC5C(C)=C(O)C(=O)CC5(C)C3C(O)C1O)OC(=O)C(OC(=O)CC(C)C(C)C)C24` (stereo not given), the T/C runs as follows: (dose: 2.0 mg/kg/injection, schedule: Q01DX009 (ip), vehicle: saline + alcohol) 156 % of control; (dose: 4.0 mg/kg/injection, schedule: Q01DX009 (ip), vehicle: saline + alcohol) 176 % of control; (dose: 7.0 micrograms/kg/injection, schedule: Q01DX009 (ip), vehicle: saline + alcohol) 100 % of control; (dose: 15.0 micrograms/kg/injection, schedule: Q01DX009 (ip), vehicle: saline + alcohol) 95 % of control and 119 % of control; (dose: 27.5 micrograms/kg/injection, schedule: Q01DX009 (ip), vehicle: saline) 120 % of control; (dose: 31.0 micrograms/kg/injection, schedule: Q01DX009 (ip), vehicle: saline + alcohol) 107 % of control and 113 % of control. Besides, the T/C (dose: 62.0 micrograms/kg/injection, schedule: Q01DX009 (ip), vehicle: saline + alcohol) was 115 % of control and 122 % of control; the T/C (dose: 440.0 micrograms/kg/injection, schedule: Q01DX009 (ip), vehicle: saline) was 150 % of control; the T/C (dose: 500.0 micrograms/kg/injection, schedule: Q01DX009 (ip), vehicle: saline + alcohol) was 123 % of control; the T/C (dose: 1000.0 micrograms/kg/injection, schedule: Q01DX009 (ip), vehicle: saline + alcohol) is 163 % of control; the T/C (dose: 2000.0 micrograms/kg/injection, schedule: Q01DX009 (ip), vehicle: saline + alcohol) is 168 % of control; the T/C (dose: 4000.0 micrograms/kg/injection, schedule: Q01DX009 (ip), vehicle: saline + alcohol) was 163 % of control.
As to `O`, the T/C reads like this: under setting [4], 95 % of control; under setting [3], 105 % of control; under setting [5], 90 % of control; (dose: 200.0 mg/kg/injection, schedule: Q04DX003 (ip), vehicle: saline) 95 % of control; (dose: 400.0 mg/kg/injection, schedule: Q01DX001 (ip), vehicle: saline) 90 % of control; (dose: 400.0 mg/kg/injection, schedule: Q04DX003 (ip), vehicle: saline) 105 % of control.
For the molecule `O=c1cc(Cl)c(=O)[nH][nH]1`, the T/C by setting is: (dose: 50.0 mg/kg/injection, schedule: Q01DX001 (ip), vehicle: saline) 101 % of control; under setting [4], 118 % of control; under setting [6], 100 % of control; under setting [5], 98 % of control; (dose: 200.0 mg/kg/injection, schedule: Q04DX003 (ip), vehicle: saline with Tween-80) 91 % of control; (dose: 400.0 mg/kg/injection, schedule: Q04DX003 (ip), vehicle: saline with Tween-80) 91 % of control.
In the case of `Cc1ccc(NCC(O)CN2CCOCC2)cc1` (stereo not given), for the setting “dose: 100.0 mg/kg/injection, schedule: Q04DX003 (ip), vehicle: Klucel (hydroxypropylcellulose) (HPC)”, the T/C is 108 % of control.
Take `CS(C)=O.CS(C)=O.[Cl][Rh]([Cl])([Cl])[Cl]`: the T/C (dose: 12.5 mg/kg/injection, schedule: Q01DX009 (ip), vehicle: saline) is 120 % of control; the T/C (dose: 22.0 mg/kg/injection, schedule: Q01DX009 (ip), vehicle: saline) is 116 % of control and 120 % of control; the T/C (dose: 33.0 mg/kg/injection, schedule: Q01DX009 (ip), vehicle: saline) was 95 % of control and 116 % of control; the T/C (dose: 50.0 mg/kg/injection, schedule: Q01DX009 (ip), vehicle: saline) is 166 % of control.
With `CNC(=S)N/N=C(/C)CCC(=O)O`, the T/C is 87 % of control (dose: 6.75 mg/kg/injection, schedule: Q01DX009 (ip), vehicle: saline with Tween-80); 88 % of control (dose: 13.5 mg/kg/injection, schedule: Q01DX009 (ip), vehicle: saline with Tween-80); 86 % of control (dose: 27.0 mg/kg/injection, schedule: Q01DX009 (ip), vehicle: saline with Tween-80).
On to `CC(=O)Nc1ccc(NNCc2ccccc2)c(N)c1`, for which the T/C is 97 % of control (dose: 100.0 mg/kg/injection, schedule: Q01DX001 (ip), vehicle: saline with Tween-80); 96 % of control (dose: 200.0 mg/kg/injection, schedule: Q01DX001 (ip), vehicle: saline with Tween-80); 91 % of control (dose: 400.0 mg/kg/injection, schedule: Q01DX001 (ip), vehicle: saline with Tween-80).
With `O=C(NCC(S)c1ccc(Cl)cc1)C(F)(F)F` (stereo not given), the T/C is, setting by setting: (dose: 6.25 mg/kg/injection, schedule: Q04DX003 (ip), vehicle: saline with Tween-80) 100 % of control; (dose: 12.5 mg/kg/injection, schedule: Q04DX003 (ip), vehicle: saline with Tween-80) 100 % of control; (dose: 25.0 mg/kg/injection, schedule: Q04DX003 (ip), vehicle: saline with Tween-80) 118 % of control.
With `O=S(=O)(O)O.O=S(=O)([O-])[O-].O=[N+]([O-])O.[Co+3].[Co+3].[NH2-].[NH2-].[NH2-].[NH2-].[NH2-].[NH2-].[NH2-].[NH2-].[NH2-]`, the T/C is 97 % of control under setting [1] and 124 % of control under setting [2].
Turning to `Cc1nc2nc(N)[nH]c(=O)c2[nH]1`, the T/C reads like this: (dose: 25.0 mg/kg/injection, schedule: Q01DX009 (ip), vehicle: saline with Tween-80) 112 % of control; (dose: 50.0 mg/kg/injection, schedule: Q01DX009 (ip), vehicle: saline with Tween-80) 124 % of control; (dose: 100.0 mg/kg/injection, schedule: Q01DX009 (ip), vehicle: saline with Tween-80) 104 % of control; under setting [6], 109 % of control.
For the molecule `COc1cc2nccc3c4ccccc4n(c1=O)c23`, the T/C is 90 % of control (dose: 100.0 mg/kg/injection, schedule: Q01DX010 (ip), vehicle: saline); 90 % of control (dose: 200.0 mg/kg/injection, schedule: Q01DX010 (ip), vehicle: saline); 95 % of control (dose: 400.0 mg/kg/injection, schedule: Q01DX010 (ip), vehicle: saline); 100 % of control (dose: 800.0 mg/kg/injection, schedule: Q01DX010 (ip), vehicle: saline).
Consider `Cc1nc(N)c([N+](=O)[O-])cc1[N+](=O)[O-]`, for which, under setting [7], the T/C is 87 % of control.
Regarding `CCOc1ccc(/C=N/NS(=O)(=O)c2ccccc2)cc1OC`, the T/C reads like this: (dose: 200.0 mg/kg/injection, schedule: Q01DX009 (ip), vehicle: saline with Tween-80) 105 % of control; (dose: 400.0 mg/kg/injection, schedule: Q01DX009 (ip), vehicle: saline with Tween-80) 100 % of control.
`N#Cc1cccc(/C=C/C=C\c2ccc([N+](=O)[O-])cc2)c1`: the T/C reads like this: under setting [7], 95 % of control; (dose: 200.0 mg/kg/injection, schedule: Q01DX001 (ip), vehicle: Klucel (hydroxypropylcellulose) (HPC)) 90 % of control; (dose: 400.0 mg/kg/injection, schedule: Q01DX001 (ip), vehicle: Klucel (hydroxypropylcellulose) (HPC)) 90 % of control.
On to `COc1cc2cnc3c4cc(OC)c(OC)cc4ccc3c2cc1OC`, for which the T/C is 100 % of control (dose: 20.0 mg/kg/injection, schedule: Q01DX009 (ip), vehicle: saline with Tween-80); 100 % of control (dose: 40.0 mg/kg/injection, schedule: Q01DX009 (ip), vehicle: saline with Tween-80); 115 % of control (dose: 80.0 mg/kg/injection, schedule: Q01DX009 (ip), vehicle: saline with Tween-80); 100 % of control (dose: 120.0 mg/kg/injection, schedule: Q01DX009 (ip), vehicle: saline with Tween-80); 100 % of control (dose: 240.0 mg/kg/injection, schedule: Q01DX009 (ip), vehicle: saline with Tween-80).
